Legend:
[1] = target: CTX-M9 (Escherichia coli, UniProt Q9L5C8); assay: Inhibition of other class A β-lactamase CTX-M9; format: biochemical
Method: (§1) For compound 9a binding affinity and mode of inhibition was determined by using gradient concentrations of CENTA. […] For this compound aggregating behavior was also excluded by dynamic light scattering experiment (data not shown).

[2] = Dynamic light scattering, aggregating behavior; format: physicochemical; details: dynamic light scattering (data not shown)
Method: as §1

[3] = target: T1, recombinant KPC-2 (Klebsiella pneumoniae, UniProt Q9F663); assay: KPC-2 inhibition assay, CENTA as reporter substrate; format: biochemical
T1 construct: made in house; host or cells: E. coli BL21 (DE3)
Method: The blaKPC-2 gene was kindly provided by Prof. Sergei Vakulenko (University of Notre Dame du Lac, Indiana, USA) and cloned as already reported and transformed into competent E.coli BL21 (DE3) cells for protein expression. 50 mL of Tryptic Soy Broth (TSB) (50 mg/L kanamycin) were inoculated with fresh colonies and grown at 37°C. 4 mL of the overnight culture was used to inoculate 1.3 L of TSB (50 mg/L kanamycin) grown at 37°C with shaking to an optical density of 0.5 measured at 600 nm. Then expression of recombinant bla gene was induced by adding 1.0 mM IPTG (isopropyl-D-thiogalactopyranoside) and the cells were again allowed to grow at 20°C overnight. Bacteria were harvested by centrifugation at 4000 rpm for 20 minutes. The pelleted cells were resuspended in Tris-HCl 50 mM pH 7.4–7.5. Periplasmatic proteins were extracted as reported in the pET System Manual (TB055 10th Edition Rev. B 0403) and subsequently dialyzed in sodium acetate buffer (50 mM, pH 5.0). The protein was conveniently purified in a single step using a Macro-Prep High S resin and eluted using sodium acetate 50 mM pH 5.0 and a sodium chloride (NaCl) linear gradient from 100 to 500 mM. The purified protein was dialyzed overnight in sodium phosphate buffer 50 mM, pH 7.0 [31, 32].
The hydrolytic activity of KPC-2 was measured using the β-lactam substrates CENTA (100 uM, KM 70 uM) or nitrocefin (114 uM, KM 36 μM) in reaction buffer consisting of 50 mM of PB at pH 7.0 at 25°C with 0.01% v/v Triton X-100 to avoid compound aggregation and promiscuous inhibition.[33] Reactions were monitored using a Beckmann DU640 spectrophotometer at […] for CENTA and 480 nm wavelength for nitrocefin [34]. The test compounds were synthesized as described below or purchased from Enamine, TimTec, Vitas-M, ChemBridge, Otava, Life Chemicals or Apollo Scientific and assayed without further purification. Compounds were dissolved in dimethyl sulfoxide (DMSO) to a concentration of 25 mM and stored at -20°C. The highest concentration at which the compounds were tested was up to 1 mM (depending on their solubility). All experiments were performed in duplicate and the error never exceeded 5%. The reaction was typically initiated by adding KPC-2 to the reaction buffer last. To control for incubation effects, protein was added to the reaction buffer first, and the reaction was initiated by the addition of reporter substrate after 10 minutes of enzyme-compound incubation.
Fig 4 Inhibitory activity of compounds selected from virtual screening. ^[a]Assays were performed in duplicate (errors were less than 5%) with CENTA as reporter substrate (100 μM, km 70 μM). Kinetic were monitored at 25° by following the absorbance variation at λ = 405 nm. ^[b] If no IC50 has been measured, percent inhibition at the highest tested concentration is given in parentheses. For example, > 0.50 (26%) implies that the highest concentration tested was 0.50 mM; at this concentration, the enzyme was inhibited by 26%. Therefore, IC50> 0.50 mM. When % Inhibition was below 10% No Inibition (NI) is reported. ^[c]Assays were run after 10’ incubation of the inhibitor with KPC-2. Reaction was started by the addition of CENTA. […] 0 (11) | 32a: IC50 mM ^[a,b]: 1.24
Competitive inhibition mechanism and the Ki for compound 9a was determined by Lineweaver–Burk (LB) and Dixon plots.

[4] = system: Kpn (C-); assay: MIC of meropenem, alone or 1:1 with compounds, control strain; format: cell-based, K. pneumoniae; details: Klebsiella pneumoniae, no compound added
Method: (§2) The antimicrobial activity of the best hits 9a and 11a and their derivatives was studied in bacterial cell cultures to investigate their ability to cross the outer membrane reaching the periplasmic space, where KPC-2 is secreted and confined in Gram negative bacteria. Compounds were tested for synergy with the β-lactam antibiotic meropenem against four K. pneumoniae clinical strains, isolated from different patients at the Hospital Universitario Son Espases, Palma de Mallorca, Spain. […] The three additional strains harbored the blaKPC-2 gene and were resistant to meropenem (Table 2). […] However, against strain Kpn 53A8 the MIC value was lowered by a factor of two when meropenem was combined with compounds 32a, 1b, 2b, 5b and 6b while in combination with compound 11a the MIC value was reduced by 4 fold.

[5] = system: Kpn 99D8; assay: MIC of meropenem, alone or 1:1 with compounds, KPC-2 clinical strain; format: cell-based, K. pneumoniae; details: Klebsiella pneumoniae, no compound added
Method: as §2

[6] = system: Kpn 53A9; assay: as above; format: cell-based, K. pneumoniae; details: Klebsiella pneumoniae, no compound added
Method: as §2

[7] = system: Kpn 53A8; assay: as above; format: cell-based, K. pneumoniae; details: Klebsiella pneumoniae; Kpn 53A8; no compound added
Method: as §2

T1 sequence (Q9F663 25-293, looked up): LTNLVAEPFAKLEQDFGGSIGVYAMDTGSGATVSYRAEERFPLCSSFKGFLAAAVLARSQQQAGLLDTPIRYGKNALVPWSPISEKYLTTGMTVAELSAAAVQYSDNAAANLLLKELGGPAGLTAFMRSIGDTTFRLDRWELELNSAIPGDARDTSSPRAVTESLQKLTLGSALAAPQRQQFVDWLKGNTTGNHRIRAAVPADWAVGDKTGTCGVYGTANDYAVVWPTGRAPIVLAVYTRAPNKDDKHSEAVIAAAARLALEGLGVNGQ
Sequence of CTX-M9 (Q9L5C8 29-291): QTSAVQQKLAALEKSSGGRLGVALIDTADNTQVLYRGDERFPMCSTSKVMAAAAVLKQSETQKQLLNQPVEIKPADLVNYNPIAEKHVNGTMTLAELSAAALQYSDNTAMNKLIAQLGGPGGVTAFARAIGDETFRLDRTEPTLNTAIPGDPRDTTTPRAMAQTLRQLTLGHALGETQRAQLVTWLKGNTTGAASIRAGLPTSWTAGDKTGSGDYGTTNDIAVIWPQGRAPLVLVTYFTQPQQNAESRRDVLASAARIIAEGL

Row | MIC [4] [µg/mL] | MIC [5] [µg/mL] | MIC [6] [µg/mL] | MIC [7] [µg/mL] | SMILES | IC50 [1] [µM] | aggregating behavior [2] | IC50 ([3]; CENTA 100 μM, after 10' incubation of the inhibitor with KPC-2, read-out: IC50) [µM] | Ki ([3]; Lineweaver–Burk and Dixon plots, gradient concentrations of CENTA, read-out: Ki (determined)) [µM] | ligand efficiency (LE) ([3]; vs KPC-2) | mode of inhibition ([3]; vs KPC-2)
1 | – | – | – | – | COc1ccc2nc(C(=O)O)sc2c1 [9a] | 160 | excluded | 150 | 112 | 0.38 kcal/mol/non-hydrogen atom | competitive inhibitor
2 | < 0.25 | 256 | 256 | 256 | C[C@@H](O)[C@H]1C(=O)N2C(C(=O)O)=C(S[C@@H]3CN[C@H](C(=O)N(C)C)C3)[C@H](C)[C@H]12 [meropenem] | – | – | – | – | – | –
